This note sets out measurements from patent US10053456B2, “Cyclopropanamine compound and use thereof” (Takeda Pharmaceutical Company Limited, priority 2014, dated 2018).

The assay has as its system Gad1 H3K4me2 level in rat primary culture neurons. Put plainly: Gad1 H3K4 methylation induction activity in rat primary culture neurons (ChIP, quantitative PCR). Format: cell-based. The following applies: Neuron, 72 h, 3 days culture, control without compound = 100%.

Where a name gives a salt, the structure may show the parent alone.

As to `Cc1nnc(NC(=O)c2cc([C@@H]3C[C@H]3NC3CCC3)cs2)s1` [Example 118, 4-((1S,2R)-2-(cyclobutylamino)cyclopropyl)-N-(5-methyl-1,3,4-thiadiazol-2-yl)thiophene-2-carboxamide sulfate], the activity at 10 µM turned out to be 233%.
